Test results as given in patent US20250270579A1, “PLANTS WITH ALTERED ROOT AND SHOOT ARCHITECTURE AND METHODS FOR OBTAINING AND USING SAME” (IOWA STATE UNIVERSITY RESEARCH FOUNDATION, INC., priority 2024, published 2025).

Columns and labels:
[1] = system: maize primary roots; assay: In vivo auxin accumulation assay in dissected primary roots; design: species or system Zea mays
Procedure: In vivo auxin transport assays. Auxin accumulation assays were performed as previously described (Strader and Bartel, “The Arabidopsis PLEIOTROPIC DRUG RESISTANCE8/ABCG36 ATP Binding Cassette Transporter Modulates Sensitivity to the Auxin Precursor Indole-3-Butyric Acid,” The Plant Cell 21:1992-2007 (2009), which is hereby incorporated by reference in its entirety). […] Sections were equilibrated in 40 μL of uptake buffer (20 mM MES, 10 mM sucrose, and 0.5 mM CaSO4, pH 5.6) for 30 minutes at room temperature (RT). 40 μL of 50 nM 3H-IAA was added to each sample and incubated at RT for 1 hour. Samples were rinsed 3 times with […] of uptake buffer. 3H-IAA in tissue samples was measured using a scintillation counter as previously described (Strader and Bartel, “The Arabidopsis PLEIOTROPIC DRUG RESISTANCE8/ABCG36 ATP Binding Cassette Transporter Modulates Sensitivity to the Auxin Precursor Indole-3-Butyric Acid,” The Plant Cell 21:1992-2007 (2009), which is hereby incorporated by reference in its entirety). Samples were moved to scintillation vials containing CytoScint (MP Biomedicals) and disintegrations per minute (DPM) were measured using a scintillation counter (Beckman Coulter LS-6500).

[2] = system: ZmPILS6; assay: Auxin transport assay in yeast expressing ZmPILS6; type: cell-based, Zea mays; conditions: yeast expressing ZmPILS6 compared to empty vector control
Procedure: Auxin transport assays in yeast. Transport assays of radiolabeled indole-3-acetic acid (^3H-IAA) were performed as previously described (Michniewicz, et al., “Transporter of IBA1 Links Auxin and Cytokinin to Influence Root Architecture,” Developmental Cell 50:599-609.e4 (2019), which is hereby incorporated by reference in its entirety). Briefly, pCC13 was transformed into Saccharomyces cerevisiae strain JBY575. Single yeast colonies were grown in liquid-URA selective media overnight at 30° C. Yeast were resuspended in 0.1M MES (pH 4.6) with 2% dextrose to an OD600 of 5. 100 μL of resuspended cells were added to a 1.5 mL Eppendorf tube and added 100 μL of 50 nM 3H-IAA and incubated at RT for 30 minutes. Yeast cells were centrifuged for 15 seconds before removing the supernatant and washing 3 times with MES solution. Cells were resuspended in 100 μL of MES buffer and ^3H-IAA was measured using a scintillation counter. For each plasmid expressing yeast, 12 biological replicates were statistically analyzed using a t test.

[3] = system: maize primary roots; assay: Auxin response assay (rolled towel), primary root length; type: in vivo, Zea mays; conditions: pils6-1 and pils6-3 roots compared to W22 and B73, 10 μM IAA
Procedure: Auxin response assays were performed using the rolled towel assay as previously described (Draves, “Maize Seedling Growth and Hormone Response Assays Using the Rolled Towel Method,” Current Protocols 2: e562 (2022), which is hereby incorporated by reference in its entirety) using 20-40 biological replicates per genotype and treatment. Maize kernels were surface sterilized with 6% bleach and planted on germination paper and placed vertically in a 2-L beaker with 600 mL of 0.5×Linsmaier and Skoog (LS) media. Seedlings were grown for 3 days after germination (DAG) and then treated with 10 μM indole-3-acetic acid (IAA) or an equal volume 95% ethanol for 7 additional days.

[4] = system: maize primary roots; assay: Proteomic profiling of maize roots with and without auxin treatment; type: in vivo, Zea mays; conditions: 10 μM IAA
Procedure: For proteomics analysis, W22 and pils6-1 kernels were surface sterilized and planted in rolled towels as described above. Two days after planting, ungerminated kernels were removed from the assay. Five-day-old seedlings were removed from the rolled towels and floated on 0.5×LS media supplemented with 10 μM IAA in 0.5×LS or an equal volume of 95% ethanol in 0.5×LS for 1 hour. For each biological replicate, total root tissue from 5 seedlings was excised using a scalpel and pooled prior to flash freezing in liquid nitrogen. Three biological replicates were generated per genotype and treatment.
Proteomics. Protein extraction and peptide generation. Protein extraction and peptide digestion was performed as previously described (Song et al., “Heterotrimeric G-Protein-Dependent Proteome and Phosphoproteome in Unstimulated Arabidopsis Roots,” Proteomics 18: e1800323 (2018), which is hereby incorporated by reference in its entirety). Briefly, total protein was extracted from […] of 5-day-old primary root tissue (W22 and pils6-1) using the phenol-FASP method as previously detailed (Song et al., “Assessment and Refinement of Sample Preparation Methods for Deep and Quantitative Plant Proteome Profiling,” Proteomics 18: e1800220 (2018); Song et al., “Quantitative Profiling of Protein Abundance and Phosphorylation State in Plant Tissues Using Tandem Mass Tags” in Plant Proteomics: Methods and Protocols, Methods in Molecular Biology., J. V. Jorrin-Novo, L. Valledor, M. A. Castillejo, M.-D. Rey, Eds., pp. 147-156 (Springer US, 2020), each of which is hereby incorporated by reference in its entirety). […] Peptide amounts were quantified using the Pierce BCA Protein assay kit […]

Row | Structure (SMILES) | 3H-IAA accumulation in the elongation zone ([1]; pils6-1 roots (absence of ZmPILS6) compared to W22) | 3H-IAA accumulation in the stele ([1]; pils6-1 roots compared to W22) | 3H-IAA accumulation in yeast cells [2] | sensitivity of primary root length to exogenous IAA [3] | proteins with altered abundance in response to IAA treatment ([4]; W22 roots, 1 hour) [proteins] | proteins auxin-induced in W22 that are auxin-repressed in pils6-1 ([4]; W22 vs pils6-1 roots) [proteins] | auxin-responsive proteins ([4]; pils6-1 roots, 1 hour) [proteins]
1 | O=C(O)Cc1c[nH]c2ccccc12 [3H-IAA] | hyperaccumulates | hypo-accumulates | significant decrease | – | – | – | –
2 | O=C(O)Cc1c[nH]c2ccccc12 [IAA, indole-3-acetic acid] | – | – | – | less sensitive | 178 | 11 | 9
